Assay results from PMC11473416, “Coumarin-chalcone derivatives as dual NLRP1 and NLRP3 inflammasome inhibitors targeting oxidative stress and inflammation in neurotoxin-induced HMC3 and BE(2)-M17 cell models of Parkinson's disease” (Frontiers in Aging Neuroscience, 2024).

What was measured:
[1] = DPPH free radical scavenging activity; settings: 10–160 μM, 30 min, room temperature
Method: Stable 1,1-diphenyl-2-picrylhydrazyl (DPPH) radical in ethanol (100 μM; Sigma-Aldrich) was used to measure the antioxidant activity of these LM compounds. After addition of quercetin (positive control) or LM compound (10–160 μM), the mixture was vortexed for 15 s and incubated at room temperature for 30 min. Subsequently, the mixture was measured spectrophotometrically at 517 nm (Multiskan GO microplate spectrophotometer; Thermo Fisher Scientific). The free radical scavenging activity was calculated as the percentage of DPPH discoloration using the formula 1 – (absorbance of sample/absorbance of control) × 100%, with half maximal effective concentration (EC50) calculated using the interpolation method.

[2] = oxygen radical antioxidant capacity (OxiSelect kit); settings: at 4–100 μM concentration
Method: The test of oxygen radical antioxidant capacity (Ou et al., [2001]) was performed using OxiSelect™ kit (Cell Biolabs, San Diego, CA, USA). Briefly, trolox standards (2.5–50 μM) and LM compounds (4–100 μM) were prepared using a serial dilution in a mixture containing 50% acetone and 50% water. After adding fluorescein to blank (50% acetone/50% water), standards, or samples, the mixture was mixed and incubated at 37°C for 30 min. Subsequently, free radical initiator 2,2′-azobis(2-methylpropionamidine) dihydrochloride (AAPH) was added to generate peroxyl radicals (ROO•). The quenching of fluorescent probe over time was recorded at 480 nm excitation and 520 nm emission for 60 min (Bio-Tek FLx800). To quantify the oxygen radical absorbance capacity, the area under the curve (AUC) for blank, standard and samples were calculated. After subtraction of the blank, trolox equivalent (μM) of samples were determined using a calibration curve with trolox standards.

[3] = cytotoxicity MTT assay in HMC3 cells; format: cell-based, human; settings: human, HMC3 microglial cells, MTT, 1–100 μM, 24 h
Method: (§1) Human HMC3 microglial (CRL-3304) and neuroblastoma BE(2)-M17 (CRL-2267) cells were obtained from American Type Culture Collection. BE(2)-M17 develops a better dopaminergic phenotype than SH-SY5Y when treated with retinoic acid to direct neuronal differentiation (Carvajal-Oliveros et al., [2022]). Cells were routinely maintained in Dulbecco's Modified Eagle Medium-Nutrient Mixture F12 (DMEM-F12) supplemented with 10% fetal bovine serum (FBS; Thermo Fisher Scientific, Waltham, MA, USA) in a 37°C incubator, with 95% relative humidity and 5% CO2 (NuAire, Plymouth, MN, USA).
(§2) To evaluate cytotoxicity of LM compounds and MPP^+, HMC3 (1 × 10^4) or BE(2)-M17 (2 × 10^4) cells were plated on 96-well dishes, grown for 20 h, and treated with LM compounds (1–100 μM) or MPP^+ [HMC3: 0–8 mM; BE(2)-M17: 0–5 mM]. Next day, 20 μl of tetrazolium dye 3-(4,5-dimethylthiazol-2-yl)-2,5-diphenyltetrazolium bromide (MTT, 5 mg/ml; Sigma-Aldrich) was added to the cells at 37°C for 3 h. The resulted insoluble purple formazan products were dissolved by lysis buffer (composition: 10% Triton X-100, 0.1 N HCl, 18% isopropanol). The absorbance of the dissolved product at optical density (OD) 570 nm was read by using a FLx800 fluorescence microplate spectrophotometer (Bio-Tek, Winooski, VT, USA). The half maximal inhibitory concentration (IC50) of LM compounds was determined through the construction of a dose-response curve. MPP^+ at 4 mM (HMC3 cell viability: 65%−69%) or 0.62 mM [BE(2)-M17 cell viability: 79%−84%] was selected to induce inflammation for further experiments.

[4] = cytotoxicity MTT assay in BE(2)-M17 cells; format: cell-based, human; settings: human, BE(2)-M17 neuroblastoma cells, MTT, 1–100 μM, 24 h
Method: as §1, §2

Row | SMILES | EC50 [1] [µM] | oxygen radical antioxidant capacity, trolox equivalent [2] [µM] | IC50 at 24 h [3] [µM] | IC50 at 24 h [4] [µM]
1 | O=c1c(O)c(-c2ccc(O)c(O)c2)oc2cc(O)cc(O)c12 [Quercetin, reference compound] | 21 | 14 to 39 | – | –
2 | COc1ccccc1/C=C/C(=O)c1c(O)c2ccccc2oc1=O [LM-009] | – | – | > 100 | > 100
